Measurements reported in ChEMBL document CHEMBL3885881, “DrugMatrix”.

Species on record: Rattus norvegicus
Experiment: DrugMatrix - Regimen: Daily Repeat
Assay type: toxicity, organism-based, Sprague-Dawley
Set-up: regimen Daily Repeat, gender Male, age 6-8 weeks
Conditions: in vivo, po, route oral GAVAGE, vehicle .5 % CMC; for BASOPHIL / EOSINOPHIL / ERYTHROCYTE COUNT / HEMATOCRIT / HEMOGLOBIN / LYMPHOCYTE / MEAN CORPUSCULAR HEMOGLOBIN / MEAN CORPUSCULAR HEMOGLOBIN CONCENTRATION / MEAN CORPUSCULAR VOLUME / MONOCYTE / NEUTROPHIL / PLATELET COUNT: tissue Blood; for ALANINE AMINOTRANSFERASE / ALBUMIN / ALKALINE PHOSPHATASE / ASPARTATE AMINOTRANSFERASE / BLOOD UREA NITROGEN / CHLORIDE / CHOLESTEROL / CREATINE PHOSPHOKINASE / CREATININE / GLUCOSE / PHOSPHORUS / POTASSIUM / SODIUM / TOTAL BILIRUBIN / TOTAL PROTEIN: tissue Plasma
[1] = 0 mg/kg, 72 h, dose level Control, time 3 day
[2] = 0 mg/kg, 120 h, dose level Control, time 5 day
[3] = 10 mg/kg, 72 h, dose level Low, time 3 day
[4] = 10 mg/kg, 120 h, dose level Low, time 5 day
[5] = 750 mg/kg, 72 h, dose level High, time 3 day
[6] = 750 mg/kg, 120 h, dose level High, time 5 day

OCCN(CCO)c1nc(N2CCCCC2)c2nc(N(CCO)CCO)nc(N3CCCCC3)c2n1 [DIPYRIDAMOLE]
BASOPHIL [1]: 0%
EOSINOPHIL [1]: 0%
ERYTHROCYTE COUNT [1]: 6.34 x10E6/uL
HEMATOCRIT [1]: 37.62%
HEMOGLOBIN [1]: 14.82 G/DL
LYMPHOCYTE [1]: 87.5%
MEAN CORPUSCULAR HEMOGLOBIN [1]: 23.48 pg
MEAN CORPUSCULAR HEMOGLOBIN CONCENTRATION [1]: 39.5 G/DL
MEAN CORPUSCULAR VOLUME [1]: 59.45 fL
MONOCYTE [1]: 1.67%
NEUTROPHIL [1]: 10.83%
PLATELET COUNT [1]: 1074.83 x10E3/uL
ALANINE AMINOTRANSFERASE [1]: 36.5 u/L
ALBUMIN [1]: 3.9 G/DL
ALKALINE PHOSPHATASE [1]: 370.17 u/L
ASPARTATE AMINOTRANSFERASE [1]: 63.17 u/L
BLOOD UREA NITROGEN [1]: 16.83 mg/dL
CHLORIDE [1]: 99.33 MEQ/L
CHOLESTEROL [1]: 64.33 mg/dL
CREATINE PHOSPHOKINASE [1]: 127 u/L
CREATININE [1]: 0.55 mg/dL
GLUCOSE [1]: 173.5 mg/dL
PHOSPHORUS [1]: 10.08 mg/dL
POTASSIUM [1]: 6.23 MEQ/L
SODIUM [1]: 143.5 MEQ/L
TOTAL BILIRUBIN [1]: 0.52 mg/dL
TOTAL PROTEIN [1]: 6.35 G/DL
BASOPHIL [2]: 0%
EOSINOPHIL [2]: 0.17%
ERYTHROCYTE COUNT [2]: 6.12 x10E6/uL
HEMATOCRIT [2]: 37.08%
HEMOGLOBIN [2]: 14.82 G/DL
LYMPHOCYTE [2]: 83.33%
MEAN CORPUSCULAR HEMOGLOBIN [2]: 24.25 pg
MEAN CORPUSCULAR HEMOGLOBIN CONCENTRATION [2]: 39.97 G/DL
MEAN CORPUSCULAR VOLUME [2]: 60.65 fL
MONOCYTE [2]: 1.5%
NEUTROPHIL [2]: 15%
PLATELET COUNT [2]: 1042.83 x10E3/uL
ALANINE AMINOTRANSFERASE [2]: 46 u/L
ALBUMIN [2]: 3.82 G/DL
ALKALINE PHOSPHATASE [2]: 369.5 u/L
ASPARTATE AMINOTRANSFERASE [2]: 65 u/L
BLOOD UREA NITROGEN [2]: 16.33 mg/dL
CHLORIDE [2]: 100.67 MEQ/L
CHOLESTEROL [2]: 57.17 mg/dL
CREATINE PHOSPHOKINASE [2]: 130 u/L
CREATININE [2]: 0.53 mg/dL
GLUCOSE [2]: 163.33 mg/dL
PHOSPHORUS [2]: 9.53 mg/dL
POTASSIUM [2]: 6.27 MEQ/L
SODIUM [2]: 144.83 MEQ/L
TOTAL BILIRUBIN [2]: 0.55 mg/dL
TOTAL PROTEIN [2]: 6.32 G/DL
BASOPHIL [3]: 0%
EOSINOPHIL [3]: 0.33%
ERYTHROCYTE COUNT [3]: 6.75 x10E6/uL
HEMATOCRIT [3]: 39.77%
HEMOGLOBIN [3]: 15.7 G/DL
LYMPHOCYTE [3]: 90.67%
MEAN CORPUSCULAR HEMOGLOBIN [3]: 23.23 pg
MEAN CORPUSCULAR HEMOGLOBIN CONCENTRATION [3]: 39.53 G/DL
MEAN CORPUSCULAR VOLUME [3]: 58.8 fL
MONOCYTE [3]: 0.33%
NEUTROPHIL [3]: 8.67%
PLATELET COUNT [3]: 1406 x10E3/uL
ALANINE AMINOTRANSFERASE [3]: 42.67 u/L
ALBUMIN [3]: 4.03 G/DL
ALKALINE PHOSPHATASE [3]: 406.33 u/L
ASPARTATE AMINOTRANSFERASE [3]: 71.33 u/L
BLOOD UREA NITROGEN [3]: 15.67 mg/dL
CHLORIDE [3]: 100.33 MEQ/L
CHOLESTEROL [3]: 71 mg/dL
CREATINE PHOSPHOKINASE [3]: 229.67 u/L
CREATININE [3]: 0.53 mg/dL
GLUCOSE [3]: 148.67 mg/dL
PHOSPHORUS [3]: 11.33 mg/dL
POTASSIUM [3]: 6.33 MEQ/L
SODIUM [3]: 144.33 MEQ/L
TOTAL BILIRUBIN [3]: 0.27 mg/dL
TOTAL PROTEIN [3]: 6.57 G/DL
BASOPHIL [4]: 0%
EOSINOPHIL [4]: 0.5%
ERYTHROCYTE COUNT [4]: 6.79 x10E6/uL
HEMATOCRIT [4]: 39%
HEMOGLOBIN [4]: 15.6 G/DL
LYMPHOCYTE [4]: 87%
MEAN CORPUSCULAR HEMOGLOBIN [4]: 23 pg
MEAN CORPUSCULAR HEMOGLOBIN CONCENTRATION [4]: 40.05 G/DL
MEAN CORPUSCULAR VOLUME [4]: 57.45 fL
MONOCYTE [4]: 0.5%
NEUTROPHIL [4]: 12%
PLATELET COUNT [4]: 1171.5 x10E3/uL
ALANINE AMINOTRANSFERASE [4]: 35 u/L
ALBUMIN [4]: 3.8 G/DL
ALKALINE PHOSPHATASE [4]: 332.33 u/L
ASPARTATE AMINOTRANSFERASE [4]: 57 u/L
BLOOD UREA NITROGEN [4]: 15 mg/dL
CHLORIDE [4]: 100.67 MEQ/L
CHOLESTEROL [4]: 70.33 mg/dL
CREATINE PHOSPHOKINASE [4]: 146.33 u/L
CREATININE [4]: 0.6 mg/dL
GLUCOSE [4]: 207 mg/dL
PHOSPHORUS [4]: 11.67 mg/dL
POTASSIUM [4]: 5.6 MEQ/L
SODIUM [4]: 143.67 MEQ/L
TOTAL BILIRUBIN [4]: 0.43 mg/dL
TOTAL PROTEIN [4]: 6.33 G/DL
BASOPHIL [5]: 0%
EOSINOPHIL [5]: 0.33%
ERYTHROCYTE COUNT [5]: 6.25 x10E6/uL
HEMATOCRIT [5]: 37.2%
HEMOGLOBIN [5]: 14.47 G/DL
LYMPHOCYTE [5]: 88.33%
MEAN CORPUSCULAR HEMOGLOBIN [5]: 23.2 pg
MEAN CORPUSCULAR HEMOGLOBIN CONCENTRATION [5]: 38.9 G/DL
MEAN CORPUSCULAR VOLUME [5]: 59.57 fL
MONOCYTE [5]: 1%
NEUTROPHIL [5]: 10.33%
PLATELET COUNT [5]: 1166.33 x10E3/uL
ALANINE AMINOTRANSFERASE [5]: 38 u/L
ALBUMIN [5]: 3.6 G/DL
ALKALINE PHOSPHATASE [5]: 276.67 u/L
ASPARTATE AMINOTRANSFERASE [5]: 56.33 u/L
BLOOD UREA NITROGEN [5]: 13.33 mg/dL
CHLORIDE [5]: 99 MEQ/L
CHOLESTEROL [5]: 75.67 mg/dL
CREATINE PHOSPHOKINASE [5]: 140 u/L
CREATININE [5]: 0.53 mg/dL
GLUCOSE [5]: 163.67 mg/dL
PHOSPHORUS [5]: 11.63 mg/dL
POTASSIUM [5]: 6.2 MEQ/L
SODIUM [5]: 143 MEQ/L
TOTAL BILIRUBIN [5]: 0.3 mg/dL
TOTAL PROTEIN [5]: 5.77 G/DL
BASOPHIL [6]: 0%
EOSINOPHIL [6]: 0%
ERYTHROCYTE COUNT [6]: 6.47 x10E6/uL
HEMATOCRIT [6]: 38.13%
HEMOGLOBIN [6]: 15 G/DL
LYMPHOCYTE [6]: 90.33%
MEAN CORPUSCULAR HEMOGLOBIN [6]: 23.2 pg
MEAN CORPUSCULAR HEMOGLOBIN CONCENTRATION [6]: 39.33 G/DL
MEAN CORPUSCULAR VOLUME [6]: 58.97 fL
MONOCYTE [6]: 0.33%
NEUTROPHIL [6]: 9.33%
PLATELET COUNT [6]: 1245.33 x10E3/uL
ALANINE AMINOTRANSFERASE [6]: 40 u/L
ALBUMIN [6]: 3.73 G/DL
ALKALINE PHOSPHATASE [6]: 320.33 u/L
ASPARTATE AMINOTRANSFERASE [6]: 55 u/L
BLOOD UREA NITROGEN [6]: 13.33 mg/dL
CHLORIDE [6]: 98.33 MEQ/L
CHOLESTEROL [6]: 72 mg/dL
CREATINE PHOSPHOKINASE [6]: 136.67 u/L
CREATININE [6]: 0.57 mg/dL
GLUCOSE [6]: 158 mg/dL
PHOSPHORUS [6]: 10.37 mg/dL
POTASSIUM [6]: 6.03 MEQ/L
SODIUM [6]: 144 MEQ/L
TOTAL BILIRUBIN [6]: 0.4 mg/dL
TOTAL PROTEIN [6]: 5.97 G/DL
